Results taken from patent US20230203058A1, “MACROCYCLIC DIAMINE DERIVATIVES AS ENT INHIBITORS FOR THE TREATMENT OF CANCERS, AND COMBINATION THEREOF WITH ADENOSINE RECEPTOR ANTAGONISTS” (ITEOS BELGIUM SA, priority 2020, published 2023).

Key:
[1] = tested on: CMV peptide-specific CD8+ T cells; test: CMV antigen recall assay (FIG. 3); type: cell-based, human; details: ATP 300 µM, 7 days, with IL-2, IL-7, nivolumab
Method: FIG. 3 depicts a bar graph of percent tetramer. PBMCs from a healthy volunteer donor with previous history of CMV infection and known HLA-A*02 subtype were cultured for 7 days with a peptide ([…]) derived from the immunodominant CMV antigen pp65 alongside IL-2, IL-7 and the anti-PD1 antibody nivolumab. ATP was added to the cultures as a source of adenosine, alongside the ENT1 inhibitor molecules as indicated. Expansion of the peptide-specific CD8^+ T cell population was monitored via flow cytometry using […]-MHC-I tetramers linked with BV421. ** = p < 0.01; * = p < 0.05; derived from one-way ANOVA with Tukey’s multiple comparisons test from technical replicates in a single experiment.
Frozen vials of PBMCs from a healthy volunteer donor with history of CMV infection and known HLA-A*02 subtype were purchased from ImmuneXperts. Cells were thawed and washed into X-VIVO15 medium containing 5% human serum and 1 mM sodium pyruvate and plated in 96 U bottom plates (1 × 10^6 cells per well). […] On day 7 of culture the cells were harvested and the frequency of CMV-peptide specific CD8^+ T cells was assessed via flow cytometry using […]-MHC-I tetramers (Tetramer Shop) by quantifying the frequency of tetramer^+ cells within the viable CD8^+ T cell gate.

hERG ion channel = biological target: T1, hERG ion channel (Homo sapiens, UniProt Q12809); test: hERG ion channel inhibition (Patchliner automated patch-clamp, CHO cells); type: cell-based; details: whole-cell, room temperature, 6-point curve up to 100 µM
T1 construct: Chinese Hamster Ovary cell lines stably expressing the full-length ion channel; expressed in transfected cells
T1 sequence (Q12809 whole entry): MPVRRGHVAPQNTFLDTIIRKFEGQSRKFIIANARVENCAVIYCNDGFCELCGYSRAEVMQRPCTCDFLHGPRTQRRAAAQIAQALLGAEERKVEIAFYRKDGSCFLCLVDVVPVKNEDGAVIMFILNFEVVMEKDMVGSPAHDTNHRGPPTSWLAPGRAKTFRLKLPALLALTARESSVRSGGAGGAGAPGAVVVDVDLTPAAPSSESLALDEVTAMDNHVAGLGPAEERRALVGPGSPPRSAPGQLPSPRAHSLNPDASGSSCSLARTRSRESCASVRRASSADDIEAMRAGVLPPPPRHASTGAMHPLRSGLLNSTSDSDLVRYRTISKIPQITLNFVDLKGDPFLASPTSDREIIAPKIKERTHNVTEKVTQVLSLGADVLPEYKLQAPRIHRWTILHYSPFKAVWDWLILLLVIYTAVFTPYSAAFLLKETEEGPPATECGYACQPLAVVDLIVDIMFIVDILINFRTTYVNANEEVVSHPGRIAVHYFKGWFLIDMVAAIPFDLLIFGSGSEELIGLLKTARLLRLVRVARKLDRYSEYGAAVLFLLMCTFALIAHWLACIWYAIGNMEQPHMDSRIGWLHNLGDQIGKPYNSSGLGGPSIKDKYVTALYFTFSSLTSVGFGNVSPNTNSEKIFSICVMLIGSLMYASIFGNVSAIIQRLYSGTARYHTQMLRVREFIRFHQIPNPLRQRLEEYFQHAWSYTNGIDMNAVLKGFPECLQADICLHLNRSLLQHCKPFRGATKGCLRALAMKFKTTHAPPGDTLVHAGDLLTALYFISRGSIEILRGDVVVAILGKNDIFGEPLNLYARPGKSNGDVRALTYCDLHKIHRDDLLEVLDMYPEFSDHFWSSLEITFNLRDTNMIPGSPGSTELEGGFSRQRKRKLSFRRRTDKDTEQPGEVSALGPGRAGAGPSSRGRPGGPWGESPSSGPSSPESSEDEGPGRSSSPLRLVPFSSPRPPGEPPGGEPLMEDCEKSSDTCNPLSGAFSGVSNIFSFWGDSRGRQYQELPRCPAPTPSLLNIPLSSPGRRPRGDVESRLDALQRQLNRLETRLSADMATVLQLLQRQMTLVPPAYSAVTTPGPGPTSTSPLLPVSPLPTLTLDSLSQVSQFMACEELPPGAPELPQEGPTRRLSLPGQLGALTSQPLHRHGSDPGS
Method: The compounds were tested for inhibition of hERG ion channel. 6-Point concentration-response curves were generated on the Patchliner automated patch-clamp using serial dilutions from a maximum test concentration of 100 µM.
Compounds were solubilised to 33 mM in DMSO before dilution in HBPS to 100 µM. 6-Point concentration-response curves were generated using serial dilutions from the top test concentration. Electrophysiological recordings were made from a Chinese Hamster Ovary cell lines stably expressing the full-length ion channel. Single cell ionic currents were measured in whole-cell configuration at room temperature (21-23° C.) using a Patchliner (Nanion Technologies). The internal solution for hERG contained (mM): 120 KF, 20 KCl, 10 EGTA, 10 HEPES and was buffered to pH 7.3. The external solution (HEPES-buffered saline, HBPS) contained (mM): 138 NaCl, 4.5 KCl, 1.8 CaC12, 1.0 MgC12, 10 HEPES, 10 glucose, buffered to pH7.4. Cells were clamped at a holding potential of -80 mV before a depolarising step appropriate for the hERG channel. Currents were measured from the step and referenced to the holding current. Compounds were incubated for 90 seconds. Concentration-response curves were generated by cumulative addition of compound with concentrations low to high. In all cases, steady-state inhibition was achieved before the next concentration of compound was added.
IC50 values were obtained from a 4-parameter logistic fit of the concentration-response data: […]

human ENT1 = biological target: T2, human ENT1 (Homo sapiens, UniProt Q99808); test: ENT1 binding assay (competition with Sahenta-DY647 on JAR cells); parameters: JAR cells expressing ENT1 were bought from ATCC® (HTB-144TM); host or cells: JAR cells (human choriocarcinoma line; whole cells); details: competition with Sahenta-DY647 100 nM, 4° C.
T2 sequence (Q99808 1-456): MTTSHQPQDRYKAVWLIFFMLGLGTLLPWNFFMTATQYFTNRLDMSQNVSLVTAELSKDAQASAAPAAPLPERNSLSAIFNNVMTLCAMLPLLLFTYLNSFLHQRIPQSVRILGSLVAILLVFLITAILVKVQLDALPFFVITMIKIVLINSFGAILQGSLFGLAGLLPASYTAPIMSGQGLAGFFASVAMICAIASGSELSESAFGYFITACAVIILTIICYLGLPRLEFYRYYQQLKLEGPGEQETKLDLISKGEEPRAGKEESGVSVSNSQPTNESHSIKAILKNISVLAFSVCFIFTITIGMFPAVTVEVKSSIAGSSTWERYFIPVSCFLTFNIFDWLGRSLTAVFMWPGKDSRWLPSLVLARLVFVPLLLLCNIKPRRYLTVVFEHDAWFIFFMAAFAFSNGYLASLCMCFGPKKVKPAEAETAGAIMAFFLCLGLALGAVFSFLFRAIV
How it was run: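 Competition binding on intact JAR cells (50000 per well) in HBSS with 10 mM Hepes and 0.1% BSA. Cells pre-incubated with compound 30 min at 4 °C, then Sahenta-DY647 added at its IC90 (100 nM) for another 30 min at 4 °C; after washing, fluorescence read at Ex 630/Em 670 nm.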

Question: For `COc1cc(C(=O)O[C@H]2CCCOc3cc(cc(OC)c3OC)C(=O)OCCCN3CCCN(CC2)CC3)cc(OC)c1OC` [Compound 2, (12S)-74,75-dimethoxy-6-oxo-5,8-dioxa-1(1,4)-diazepana-7(1,3)-benzenacyclotetradecaphane-12-yl 3,4,5-trimethoxybenzoate], which “Rescue of proliferation of CMV peptide-specific CD8+ T cells” value [1] is on record?
Answer: significant rescue of proliferation

Question: And the IC50 (hERG ion channel)?
Answer: 2500 nM

Question: What about the IC50 (human ENT1) of the same compound?
Answer: 1 to 20 nM

Question: How did the “Rescue of proliferation of CMV peptide-specific CD8+ T cells” value [1] turn out when `COc1cc(C(=O)OC2CCCOc3cc(cc(OC)c3OC)C(=O)N(C)CCCN3CCCN(CC2)CC3)cc(OC)c1OC` (centres unmarked) [Compound 11, 74,75-dimethoxy-5-methyl-6-oxo-8-oxa-5-aza-1(1,4)-diazepana-7(1,3)-benzenacyclotetradecaphane-12-yl 3,4,5-trimethoxybenzoate] was run?
Answer: significant rescue of proliferation

Question: What about the IC50 (human ENT1) of the same compound?
Answer: 1 to 20 nM
